Values of other authors as cited in patent US7645767B2, “Pharmaceutical compositions for treating chronic pain and pain associated with neuropathy” (Trinity Laboratories, Inc., priority 2006, dated 2010).

Columns and labels:
[1] = for accumulation during multiple dose treatment: multiple dose treatment with tramadol
μ-opiate receptors = μ-opiate receptors (Homo sapiens, UniProt P35372)
[2] = system: complex regional pain syndrome and neuropathic pain

Sequence of μ-opiate receptors (P35372 whole entry): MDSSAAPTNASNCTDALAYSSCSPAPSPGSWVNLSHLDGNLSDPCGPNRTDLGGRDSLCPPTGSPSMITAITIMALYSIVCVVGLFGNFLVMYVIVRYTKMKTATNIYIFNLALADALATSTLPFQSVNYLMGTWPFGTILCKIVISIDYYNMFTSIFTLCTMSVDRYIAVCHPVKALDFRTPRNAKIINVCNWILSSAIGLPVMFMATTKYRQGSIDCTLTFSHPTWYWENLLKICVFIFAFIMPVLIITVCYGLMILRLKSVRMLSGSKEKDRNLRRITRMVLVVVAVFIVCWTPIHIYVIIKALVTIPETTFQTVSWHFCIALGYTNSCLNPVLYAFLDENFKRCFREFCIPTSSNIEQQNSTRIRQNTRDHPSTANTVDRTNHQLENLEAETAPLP

Compound | time to peak serum concentrations ([1]; after oral administration) [h] | accumulation during multiple dose treatment [1] | affinity for μ-opiate receptors, fold less than codeine (μ-opiate receptors; relative to codeine) [fold] | affinity for μ-opiate receptors, fold less than d-propoxyphene (μ-opiate receptors; relative to d-propoxyphene) [fold] | affinity for μ-opiate receptors compared with dextromethorphan (μ-opiate receptors; relative to dextromethorphan) | affinity for μ-opiate receptors, fold less than morphine (μ-opiate receptors; relative to morphine) | duration of the analgesic effect (analgesic effect; after a single oral dose of tramadol 100 mg) | half-life ([1]; after a single oral dose of 100 mg tramadol, 2-compartmental elimination) [h] | analgesic potency compared with parent drug (analgesic effect; relative to tramadol) | absorption in the jejunum (oral dosing of rats, after 3 hours) [%] | time to distribution to brain, spinal cord, liver and blood (rats, i.v. administration) [min] | duration of sustained analgesia ([2]; capsaicin concentration 5-10% under regional anesthesia) [weeks] | dropout rates due to burning pain at the site of application ([2]; topical capsaicin trials) [%]
COc1cccc(C2(O)CCCCC2CN(C)C)c1 (racemic) [tramadol, (+/−)-trans (RR,SS)-2-[(dimethylamino)methyl]-1-(3-methoxyphenyl)cyclohexanol] | ≤ 2 | approximately 2 fold | 10 | 100 | equivalent | 6,000 fold | about 6 hours |  |  |  |  |  | 
CN(C)C[C@H]1CCCC[C@]1(O)c1cccc(O)c1 [O-desmethyltramadol] |  | approximately 2 fold |  |  |  |  |  | 9 | at least twice |  |  |  | 
COc1cc(CNC(=O)CCCCC=CC(C)C)ccc1O [capsaicin, 8-methyl-N-vanillyl-6-nonenamide] |  |  |  |  |  |  |  |  |  | 85 | ≤ 20 | 1 to 8 | 33 to 67
